Data published in patent US12331051B2 (priority 2021, dated 2025).

Assays:
C57BL/6J mice = experiment: Chronic variable stress (CVS) mouse model, open field test and splash test; format: in vivo; settings: for CVS induced decrease of time in center of open field: female mice
Experimental: The “polymorph HT compound” (from Example 1) was tested for its anti-depression/anxiety activity in the chronic variable stress (CVS) mouse model as assessed by a self-grooming splash test and an open field test (OFT) [Strekalova et al., Psychopharmacology (Berl). 2022, 239(3):663-693; Willner, P. Neurobiol Stress, 2017, 6:78-93]. In brief, C57BL/6J mice were subjected to a CVS protocol, consisting of 2 stressors per day for 35 days. Naive mice (not exposed to CVS) are used as a control for CVS-induced depression activity. Following the 35 days CVS, mice were treated with the “E559 polymorph” (FIG. 23) via intraperitoneal injection (IP) as follows: single dose after the last day of CVS (3 mg/kg) or 4 doses (1 mg/kg) applied every 48 hours starting on day 28 of CVS. Saline was used as the vehicle control. The splash test and OFT were performed as previously described in (Aguilar-Valles et al., Nature, 2021, 590, p315-319). […] FIG. 23B represents distance travelled in the open field by female mice treated with E559 polymorph. FIG. 23C represents time spend in the center of the open field of mice in FIG. 23B. […] Horizontal lines represent the mean±standard error of the mean (S.E.M.) and asterisks indicate statistical significances.

5-HT6 = 5-HT6 (Homo sapiens, UniProt P50406); experiment: Functional assay (cAMP); format: cell-based; set-up: expressed in transfected cells; host or cells: HEK-293
Experimental: (§1) Neuro-receptor binding and functional effects of the “E559 polymorph” was examined by analyzing binding affinity [Ki (nM)], functional agonist activity [EC50 (nM)], and functional antagonist activity [IC50 (nM)] against a panel of key receptors in neurophysiological disorders. Binding and functional assays were performed at “E559 polymorph” concentrations of 0.0003, 0.003, 0.01, 0.03, 0.1, 0.3, 1, and 10 μM. In binding assays, cell membrane homogenates, expressing each receptor target, were incubated with the corresponding radio-ligand in absence or presence of several concentration of the “E559 polymorph” compound. The measurement of binding affinity of the “E559 polymorph” is represented in TABLE XIII by Ki (nM) which was calculated as percent inhibition of the binding of a radioactively labeled reference ligand at each receptor. In functional assays the HEK-293 cells expressing each receptor target were suspended in buffer and distribute in microplates and incubated for 30 minutes at room temperature or 37° C. in the presence of buffer alone (basal control), the reference agonist or antagonist, or the “E559 polymorph. Following incubation, the cells were lysed and the appropriate fluorescent probe (Ca2+ flux, cAMP, or IP1) were added for 60 minutes to measure the fluorescence transfer at the appropriate wavelength using a microplate reader. The cellular agonist effect (EC50) was calculated as a percent of control response to a known reference agonist and the cellular antagonist effect (IC50) was calculated as a percent inhibition of control reference agonist response for each receptor.
The functional agonist activity [EC50 (nM), Emax], and functional antagonist activity [IC50 (nM)] of the 5R:8S stereoisomer of the “E559 polymorph” (5R:8S E558) was compared with the “E559 polymorph” (a 5R:8R stereoisomer) at selected serotonin receptors. The assays were performed as described in Example 6.

[1] = biological target: H1 histaminergic receptor (Homo sapiens, UniProt P35367); experiment: BRET-based G protein dissociation assay; format: cell-based
[2] = biological target: T1, Serotonin 7 receptor (5-HT7R) (Homo sapiens, UniProt P34969); experiment: Functional assay in HEK-293 cells (cAMP); format: cell-based
T1 construct: expressed in transfected cells; host or cells: HEK-293
Experimental: as §1

[3] = biological target: T2, Beta 2 adrenergic receptor (Homo sapiens, UniProt P07550); experiment: Functional assay in HEK-293 cells (cAMP); format: cell-based
T2 construct: expressed in transfected cells; host or cells: HEK-293
Experimental: as §1

[4] = biological target: T3, Beta 1 adrenergic receptor (Homo sapiens, UniProt P08588); experiment: Functional assay in HEK-293 cells (cAMP); format: cell-based
T3 construct: expressed in transfected cells; host or cells: HEK-293
Experimental: as §1

D2S dopamine receptor = biological target: T4, D2S dopamine receptor (Homo sapiens, UniProt P14416); experiment: Functional assay in HEK-293 cells (cAMP); format: cell-based
T4 construct: expressed in transfected cells; host or cells: HEK-293
Experimental: as §1

[5] = biological target: T5, Alpha 2C adrenergic receptor (Homo sapiens, UniProt P18825); experiment: Functional assay in HEK-293 cells (cAMP); format: cell-based
T5 construct: expressed in transfected cells; host or cells: HEK-293
T5 sequence (P18825 1-462): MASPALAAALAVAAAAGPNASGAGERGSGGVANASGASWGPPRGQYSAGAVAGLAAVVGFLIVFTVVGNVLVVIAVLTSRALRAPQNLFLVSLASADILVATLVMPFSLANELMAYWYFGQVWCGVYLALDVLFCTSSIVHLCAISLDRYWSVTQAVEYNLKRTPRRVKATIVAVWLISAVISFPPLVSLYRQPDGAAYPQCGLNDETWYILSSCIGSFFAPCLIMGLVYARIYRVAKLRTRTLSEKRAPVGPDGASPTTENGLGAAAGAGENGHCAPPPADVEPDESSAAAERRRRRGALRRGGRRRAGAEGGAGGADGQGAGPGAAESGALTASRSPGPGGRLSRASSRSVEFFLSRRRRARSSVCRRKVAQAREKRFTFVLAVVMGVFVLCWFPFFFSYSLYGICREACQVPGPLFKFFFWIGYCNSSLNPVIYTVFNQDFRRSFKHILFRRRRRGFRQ
Experimental: as §1

[6] = biological target: T6, Alpha 2B adrenergic receptor (Homo sapiens, UniProt P18089); experiment: Functional assay in HEK-293 cells (cAMP); format: cell-based
T6 construct: expressed in transfected cells; host or cells: HEK-293
T6 sequence (P18089 1-450): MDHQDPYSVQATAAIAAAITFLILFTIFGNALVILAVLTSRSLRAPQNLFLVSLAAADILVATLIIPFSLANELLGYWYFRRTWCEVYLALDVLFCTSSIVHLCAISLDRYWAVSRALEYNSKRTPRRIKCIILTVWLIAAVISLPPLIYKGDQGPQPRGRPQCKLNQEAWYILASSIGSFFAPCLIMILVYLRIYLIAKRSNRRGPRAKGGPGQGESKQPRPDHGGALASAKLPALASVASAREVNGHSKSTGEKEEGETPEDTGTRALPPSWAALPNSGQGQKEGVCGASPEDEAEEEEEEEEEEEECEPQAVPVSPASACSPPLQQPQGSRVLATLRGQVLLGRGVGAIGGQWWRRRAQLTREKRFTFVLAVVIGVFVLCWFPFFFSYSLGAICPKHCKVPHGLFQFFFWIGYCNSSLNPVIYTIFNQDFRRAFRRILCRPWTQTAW
Experimental: as §1

T3 sequence (P08588 whole entry): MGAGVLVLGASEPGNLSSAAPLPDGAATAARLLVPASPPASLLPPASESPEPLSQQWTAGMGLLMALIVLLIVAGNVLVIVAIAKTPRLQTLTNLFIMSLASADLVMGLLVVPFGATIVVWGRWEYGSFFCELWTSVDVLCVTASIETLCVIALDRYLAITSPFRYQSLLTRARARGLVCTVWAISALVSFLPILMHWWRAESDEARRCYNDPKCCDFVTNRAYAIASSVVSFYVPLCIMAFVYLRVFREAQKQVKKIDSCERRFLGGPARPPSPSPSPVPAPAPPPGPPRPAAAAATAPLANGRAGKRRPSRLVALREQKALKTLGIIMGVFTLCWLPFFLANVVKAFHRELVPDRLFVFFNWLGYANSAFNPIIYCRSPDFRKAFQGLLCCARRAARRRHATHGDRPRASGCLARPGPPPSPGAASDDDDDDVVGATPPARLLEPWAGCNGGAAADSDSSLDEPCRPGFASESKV
T4 sequence (P14416 1-414 isoform P14416-2): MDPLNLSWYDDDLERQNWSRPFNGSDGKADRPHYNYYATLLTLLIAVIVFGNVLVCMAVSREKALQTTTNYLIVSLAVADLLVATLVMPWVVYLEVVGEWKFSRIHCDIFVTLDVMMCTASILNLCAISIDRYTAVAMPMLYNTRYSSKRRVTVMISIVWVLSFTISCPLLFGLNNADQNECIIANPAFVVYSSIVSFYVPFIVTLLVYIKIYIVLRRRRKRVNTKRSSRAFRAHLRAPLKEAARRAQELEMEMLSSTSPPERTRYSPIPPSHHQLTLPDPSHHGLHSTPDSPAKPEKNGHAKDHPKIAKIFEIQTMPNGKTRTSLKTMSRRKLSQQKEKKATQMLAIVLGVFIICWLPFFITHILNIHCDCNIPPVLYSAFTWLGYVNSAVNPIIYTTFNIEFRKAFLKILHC
Sequence of H1 histaminergic receptor (P35367 whole entry): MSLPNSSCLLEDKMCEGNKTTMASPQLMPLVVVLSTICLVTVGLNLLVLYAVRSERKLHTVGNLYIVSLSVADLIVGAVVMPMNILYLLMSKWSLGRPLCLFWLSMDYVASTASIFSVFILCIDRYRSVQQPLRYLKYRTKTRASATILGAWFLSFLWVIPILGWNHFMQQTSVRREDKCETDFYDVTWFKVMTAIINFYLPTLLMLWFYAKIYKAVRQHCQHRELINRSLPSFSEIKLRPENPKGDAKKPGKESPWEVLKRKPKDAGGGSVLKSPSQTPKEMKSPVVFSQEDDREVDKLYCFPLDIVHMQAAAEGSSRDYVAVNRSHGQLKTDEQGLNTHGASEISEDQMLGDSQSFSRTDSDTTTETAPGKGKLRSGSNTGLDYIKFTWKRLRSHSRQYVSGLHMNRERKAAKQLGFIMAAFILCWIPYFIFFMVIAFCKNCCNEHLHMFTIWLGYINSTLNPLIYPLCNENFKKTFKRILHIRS
T1 sequence (P34969 whole entry): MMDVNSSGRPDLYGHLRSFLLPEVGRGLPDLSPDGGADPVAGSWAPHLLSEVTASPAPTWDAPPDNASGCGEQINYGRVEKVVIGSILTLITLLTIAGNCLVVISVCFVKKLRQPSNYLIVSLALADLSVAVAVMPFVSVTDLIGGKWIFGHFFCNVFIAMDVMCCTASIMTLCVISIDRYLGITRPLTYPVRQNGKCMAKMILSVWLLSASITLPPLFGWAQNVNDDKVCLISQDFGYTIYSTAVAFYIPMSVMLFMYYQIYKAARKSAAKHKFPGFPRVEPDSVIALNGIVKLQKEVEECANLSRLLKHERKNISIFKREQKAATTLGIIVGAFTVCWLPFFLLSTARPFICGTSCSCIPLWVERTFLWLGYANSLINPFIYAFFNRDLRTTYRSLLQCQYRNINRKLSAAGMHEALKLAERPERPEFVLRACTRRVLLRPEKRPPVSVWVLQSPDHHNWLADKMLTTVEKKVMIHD
Sequence of 5-HT6 (P50406 whole entry): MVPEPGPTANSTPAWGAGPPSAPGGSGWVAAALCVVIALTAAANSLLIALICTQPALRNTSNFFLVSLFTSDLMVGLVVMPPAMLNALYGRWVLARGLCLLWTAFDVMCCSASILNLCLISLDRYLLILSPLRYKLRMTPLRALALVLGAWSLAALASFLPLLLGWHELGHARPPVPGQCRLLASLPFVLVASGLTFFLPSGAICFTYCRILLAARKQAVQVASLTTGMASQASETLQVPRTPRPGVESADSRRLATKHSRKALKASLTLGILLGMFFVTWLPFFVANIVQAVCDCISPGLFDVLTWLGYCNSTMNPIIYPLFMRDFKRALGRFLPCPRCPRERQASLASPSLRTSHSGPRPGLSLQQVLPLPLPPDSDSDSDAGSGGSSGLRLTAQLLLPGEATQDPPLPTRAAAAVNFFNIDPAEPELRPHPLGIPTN
T2 sequence (P07550 whole entry): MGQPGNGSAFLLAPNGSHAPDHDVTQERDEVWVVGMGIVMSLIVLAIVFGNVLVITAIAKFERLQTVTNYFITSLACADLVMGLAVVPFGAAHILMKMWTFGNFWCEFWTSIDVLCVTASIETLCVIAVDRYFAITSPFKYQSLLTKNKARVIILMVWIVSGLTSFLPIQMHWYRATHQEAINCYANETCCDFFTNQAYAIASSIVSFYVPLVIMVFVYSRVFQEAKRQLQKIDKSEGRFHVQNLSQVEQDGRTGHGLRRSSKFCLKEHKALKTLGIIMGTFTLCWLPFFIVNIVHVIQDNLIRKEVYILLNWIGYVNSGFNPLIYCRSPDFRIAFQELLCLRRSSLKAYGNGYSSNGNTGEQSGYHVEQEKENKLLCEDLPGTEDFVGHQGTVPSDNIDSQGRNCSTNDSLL

## CCN(CC)C(=O)[C@@H]1C=C2c3cccc4[nH]c(Br)c(c34)C[C@H]2N(C)C1 [E559, (5R, 8R)-2-Bromo-9,10-didehydro-N,N-diethyl-6-methylergoline-8-carboxamide hemi-D-tartrate]
C57BL/6J mice; 4×1 mg/kg
  CVS effect on time in center in OFT, 28 days after the last treatment: remained reversed
  locomotion (total distance travelled) in open field, CVS mice: without affecting locomotion
C57BL/6J mice; female CVS mice
  time spent self-grooming in the splash test: partially reversed this CVS-induced effect
C57BL/6J mice; IP 4 doses of 1 mg/kg every 48 hours
  CVS induced decrease of time in center of open field: fully reversed to the levels seen in the control
C57BL/6J mice; IP single dose of 3 mg/kg
  CVS induced decrease of time in center of open field: partially restored the effect of CVS
5-HT6
  EC50: 0.5 nM
5-HT6; cAMP, ligand 5-HT, read-out: Functional Assay (agonist) Emax
  Emax: 80.1%
[1]
  EC50: 152 nM
  Kb: 983 nM
[2]
  EC50: > 10000 nM
  IC50: 240 nM
[3]
  EC50: > 10000 nM
  IC50: 360 nM
[4]
  EC50: > 10000 nM
  IC50: 870 nM
D2S dopamine receptor
  EC50: > 10000 nM
  IC50: > 10000 nM
[5]
  EC50: 730 nM
  IC50: > 10000 nM
[6]
  EC50: > 10000 nM
  IC50: 3600 nM
